These are literature values, as cited in paper PMC6647941 (ACS Omega, 2019).

For the data set the following is noted: dopamine transporter tracer ref 12.

Take `CN1[C@H]2CC[C@@H]1[C@@H](CN(CC[S-])CC[N-]CC[S-])[C@@H](c1ccc(Cl)cc1)C2.[O]=[99Tc+4]` [^99mTc-TRODAT-1]: the brain uptake was 0.40 % ID/g.
